This passage reports inhibition results from ChEMBL document CHEMBL4417635, “2-hydroxyarylamide derivative or pharmaceutically acceptable salt thereof, preparation method thereof, and pharmaceutical composition for preventing or treating cancer containing same as active ingredient” (2013).

Each structure is given as a SMILES string.

For experiment [1], the target named is Transmembrane protease serine 4 (Homo sapiens) (UniProt Q9NRS4). The experiment in a line: Inhibition of TMPRSS4 serine protease domain (Val 205 to Leu 437 residues) (unknown origin) expressed in Escherichia coli BL21 (DE3) using […]-Gln-Ala-Arg-7-amido-4-methylcoumarin hydrochloride substrate and measured for 5 mins at 5 mins intervals by fluorescence based assay relative to control.

For experiment [2] the target is unchanged. The experiment can be described thus: Inhibition of TMPRSS4 serine protease domain (Val 205 to Leu 437 residues) (unknown origin) expressed in Escherichia coli BL21 (DE3) at 30 uM using […]-Gln-Ala-Arg-7-amido-4-methylcoumarin hydrochloride substrate and measured for 5 mins at 5 mins intervals by fluorescence based assay relative to control.
The target is the same in experiment [3]. The experiment can be described thus: Inhibition of TMPRSS4 serine protease domain (Val 205 to Leu 437 residues) (unknown origin) expressed in Escherichia coli BL21 (DE3) at 100 uM using […]-Gln-Ala-Arg-7-amido-4-methylcoumarin hydrochloride substrate and measured for 5 mins at 5 mins intervals by fluorescence based assay relative to control.
For experiment [4] the target is unchanged. The experiment can be described thus: Inhibition of TMPRSS4 serine protease domain (Val 205 to Leu 437 residues) (unknown origin) expressed in Escherichia coli BL21 (DE3) at 10 uM using […]-Gln-Ala-Arg-7-amido-4-methylcoumarin hydrochloride substrate and measured for 5 mins at 5 mins intervals by fluorescence based assay relative to control.
The target is the same in experiment [5]. The experiment in a line: Inhibition of TMPRSS4 (unknown origin) expressed in human SW480 cells assessed as reduction in cell migration at 25 uM incubated for 48 hrs by crystal violet staining based assay relative to control.
For experiment [6] the target is unchanged. The experiment can be described thus: Inhibition of TMPRSS4 (unknown origin) expressed in human SW480 cells assessed as reduction in cell migration at 2 uM incubated for 48 hrs by crystal violet staining based assay relative to control.
Experiment [7] shares this target. The experiment can be described thus: Inhibition of TMPRSS4 (unknown origin) expressed in human SW480 cells assessed as reduction in cell migration at 0.8 uM incubated for 48 hrs by crystal violet staining based assay relative to control.
Experiment [8] has the same target. The experiment can be described thus: Inhibition of TMPRSS4 (unknown origin) expressed in human SW480 cells assessed as reduction in cell migration at 5 uM incubated for 48 hrs by crystal violet staining based assay relative to control.

One may read the inhibition as the share of the control response that was lost under treatment.

Sequence of Transmembrane protease serine 4 (Homo sapiens) (Q9NRS4 whole entry, the tested form may be a part): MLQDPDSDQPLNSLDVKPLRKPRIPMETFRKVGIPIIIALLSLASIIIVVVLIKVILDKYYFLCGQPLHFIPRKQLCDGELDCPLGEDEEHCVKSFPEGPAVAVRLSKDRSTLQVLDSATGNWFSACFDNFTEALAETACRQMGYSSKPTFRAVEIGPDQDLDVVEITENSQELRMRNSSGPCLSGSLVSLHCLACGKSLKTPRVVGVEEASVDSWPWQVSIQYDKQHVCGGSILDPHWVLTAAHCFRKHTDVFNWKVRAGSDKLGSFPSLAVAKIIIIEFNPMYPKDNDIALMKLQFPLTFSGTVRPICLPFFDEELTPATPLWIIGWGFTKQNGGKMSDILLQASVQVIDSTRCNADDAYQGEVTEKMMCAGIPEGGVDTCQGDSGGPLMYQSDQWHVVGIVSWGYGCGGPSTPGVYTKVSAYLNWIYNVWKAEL

In the case of `O=C(Nc1ccc(C(F)(F)F)cn1)c1cc(Cl)ccc1O`, the inhibition entry was “Dose-dependent effect” in experiment [1], 25% in experiment [2] and 47% in experiment [3].

Regarding `O=C(Nc1ccc(Br)c(C(F)(F)F)c1)c1cc(Cl)ccc1O`, the inhibition was 30 to 80% in experiment [4], “Dose-dependent effect” in experiment [1], 46 to 93% in experiment [2] and 98% in experiment [3].

Take `O=C(Nc1cnc2ccccc2c1)c1cc(Cl)ccc1O`: the inhibition was 51% in experiment [5], “Dose-dependent effect” in experiment [1], 8% in experiment [2] and 75% in experiment [3].

`N#Cc1cccc(NC(=O)c2cc(Cl)ccc2O)c1`: the inhibition in experiment [4] is 12%; in experiment [1], “Dose-dependent effect”; in experiment [2] it was 47%; in experiment [3] it was 88%.

Turning to `O=C(Nc1nc(-c2ccccc2)cs1)c1cc(Cl)ccc1O`, the inhibition result is “Dose-dependent effect” in experiment [1], 91% in experiment [2], 75% in experiment [6] and 98% in experiment [3].

On to `O=C(Nc1ccc(F)c(C(F)(F)F)c1)c1cc(Cl)ccc1O`, for which the inhibition in experiment [4] was 64%; in experiment [1] it was “Dose-dependent effect”; in experiment [2], 86%; in experiment [3], 98%.

Turning to `O=C(Nc1cc(Br)cc(C(F)(F)F)c1)c1cc(Cl)ccc1O`, the inhibition in experiment [4] was 64%; in experiment [1], “Dose-dependent effect”; in experiment [2], 100%; in experiment [3], 100%.

As to `O=C(Nc1cc(C(F)(F)F)cc(C(F)(F)F)c1)c1cc2ccccc2cc1O`, the inhibition was 58% in experiment [4], “Dose-dependent effect” in experiment [1], 96% in experiment [2] and 72% in experiment [7].

Consider `O=C(Nc1ncc(C(F)(F)F)cc1Cl)c1cc(Cl)ccc1O`, for which the figures for the inhibition entry in experiment [1], in experiment [2] and in experiment [3] were “Dose-dependent effect”, 0% and 0%, respectively.

In the case of `O=C(Nc1nc(C(F)(F)F)cs1)c1cc(Cl)ccc1O`, the figures for the inhibition result in experiment [1], in experiment [2] and in experiment [3] were “Dose-dependent effect”, 61% and 100%, respectively.

Turning to `O=C(Nc1cc(C(F)(F)F)ccc1F)c1cc(Cl)ccc1O`, the inhibition in experiment [4] is 67 to 100%; in experiment [1] it was “Dose-dependent effect”; in experiment [2] it was 100%; in experiment [3], 100%.

With `N#Cc1ccc(NC(=O)c2cc(Cl)ccc2O)nc1`, the inhibition in experiment [4] is 26%; in experiment [1], “Dose-dependent effect”; in experiment [2], 63%; in experiment [8] it was 44%.

For `O=C(Nc1ccc(Cl)nc1)c1cc(Cl)ccc1O`, the inhibition result is “Dose-dependent effect” in experiment [1], 6% in experiment [2] and 39% in experiment [3].

Take `COc1cc(NC(=O)c2cc(Cl)ccc2O)cc(C(F)(F)F)c1`: the inhibition was 67% in experiment [4]; “Dose-dependent effect” in experiment [1]; 88% in experiment [2]; 99% in experiment [3]; 49% in experiment [7].

For `O=C(Nc1ccnc(Cl)c1)c1cc(Cl)ccc1O`, the inhibition entry in experiment [1] was “Dose-dependent effect”; in experiment [2], 35%; in experiment [3], 21%.

In the case of `N#Cc1ccc(NC(=O)c2cc(Cl)ccc2O)cc1`, the inhibition entry in experiment [1] was “Dose-dependent effect”; in experiment [2], 29%; in experiment [3], 69%.

For the molecule `O=C(Nc1ccc(C(F)(F)F)cc1[N+](=O)[O-])c1cc(Cl)ccc1O`, the inhibition was 53% in experiment [4], “Dose-dependent effect” in experiment [1], 98% in experiment [2] and 76% in experiment [7].

For the molecule `Cc1csc(NC(=O)c2cc(Cl)ccc2O)n1`, the inhibition result is “Dose-dependent effect” in experiment [1], 0% in experiment [2] and 67% in experiment [3].

Consider `Cc1cc(C)cc(NC(=O)c2cc(Cl)ccc2O)c1`, for which the inhibition result in experiment [1] was “Dose-dependent effect”; in experiment [2], 44%; in experiment [3], 56%.

For the molecule `O=C(Nc1nnc(C(F)(F)F)s1)c1cc(Cl)ccc1O`, the inhibition result in experiment [1] was “Dose-dependent effect”; in experiment [2], 75%; in experiment [3] it was 100%; in experiment [8] it was 29%.

With `O=C(Nc1ccccc1)c1cc(Cl)ccc1O`, the inhibition result in experiment [1] is “Dose-dependent effect”; in experiment [2], 13%; in experiment [3], 75%.

As to `Cc1cc(C)nc(NC(=O)c2cc(Cl)ccc2O)n1`, the inhibition entry in experiment [1] was “Dose-dependent effect”; in experiment [2], 0%; in experiment [3], 0%.

Consider `O=C(Nc1cc(C(F)(F)F)cc(C(F)(F)F)c1)c1cc(Cl)ccc1O`, for which the inhibition in experiment [4] is 64%; in experiment [1], “Dose-dependent effect”; in experiment [2], 96%; in experiment [3], 100%; in experiment [7], 76%.

`O=C(Nc1ccc(Cl)cn1)c1cc(Cl)ccc1O`: the inhibition result was “Dose-dependent effect” in experiment [1], 14% in experiment [2] and 55% in experiment [3].

Consider `O=C(Nc1ccc(Cl)c(C(F)(F)F)c1)c1cc(Cl)ccc1O`, for which the inhibition in experiment [4] is 71%; in experiment [1] it was “Dose-dependent effect”; in experiment [2], 95%; in experiment [3], 99%; in experiment [7], 68%.

In the case of `O=C(Nc1ncccn1)c1cc(Cl)ccc1O`, the inhibition entry is “Dose-dependent effect” in experiment [1], 0% in experiment [2] and 2% in experiment [3].

`O=C(Nc1cc(C(F)(F)F)ccc1Cl)c1cc(Cl)ccc1O`: the inhibition in experiment [4] was 64%; in experiment [1], “Dose-dependent effect”; in experiment [2] it was 99%; in experiment [3], 100%.

Take `O=C(Nc1c(F)c(F)nc(F)c1F)c1cc(Cl)ccc1O`: the inhibition result in experiment [1] is “Dose-dependent effect”; in experiment [2], 31%; in experiment [3], 51%.

Consider `O=C(Nc1nccs1)c1cc(Cl)ccc1O`, for which the inhibition result in experiment [1] was “Dose-dependent effect”; in experiment [2], 44%; in experiment [3] it was 90%.

For the molecule `N#Cc1ccc(NC(=O)c2cc(Cl)ccc2O)cc1C(F)(F)F`, the inhibition entry in experiment [1] is “Dose-dependent effect”; in experiment [2], 88%; in experiment [6], 81%; in experiment [3], 100%.

For the molecule `N#Cc1ccc(NC(=O)c2cc(Cl)ccc2O)c(Cl)c1`, the inhibition entry in experiment [1] was “Dose-dependent effect”; in experiment [2], 92%; in experiment [6], 54%; in experiment [3], 100%.

For the molecule `O=C(Nc1ccccn1)c1cc(Cl)ccc1O`, the figures for the inhibition entry in experiment [1], in experiment [2] and in experiment [3] were “Dose-dependent effect”, 0% and 11%, respectively.
